These results are taken from the Bradley open melting point set (2014).

Where “and” joins values, the source holds several entries; their conditions need not be identical. Identical values can stand only once.

Consider `Nc1ncc(Br)cc1Br` [2-amino-3,5-dibromopyridine], for which the melting point is 104 °C.

In turn, `O=C(Cl)c1ccco1` [2-furoyl chloride] registered a melting point of -1 °C.

As for `CCc1ccc(NC(=S)NN)cc1` [4-(4-ethylphenyl)-3-thiosemicarbazide], the melting point was 130 °C.

The molecule `O=C(/C(=N/Nc1cccnc1)C(=O)C(F)(F)F)c1cccs1` registered a melting point of 151 °C.

Regarding `c1ccc2cc3cc4ccccc4cc3cc2c1` [2,3-benzanthracene], the melting point came to 341 °C.

The molecule `CC(=O)Nc1ccccc1C(=O)O` [2-acetamidobenzoic acid] displayed a melting point of 186 °C.

The molecule `CN(C)c1ccc(/C=C2\C(=O)C3CCC(C)(C2=O)C3(C)C)cc1` (stereo unspecified) displayed a melting point of 153 °C.

Molecule `COc1cc(/C=C/C(=O)O)cc(OC)c1O` [sinapic acid] showed a melting point of 195 °C.

Take `N#CCCCl` [3-chloropropionitrile]: the melting point was -50 °C.

In turn, `Oc1ccccc1` [phenol] gave a melting point of 41 °C.

In turn, `CC(C)(Oc1ccc(CCNC(=O)c2ccc(Cl)cc2)cc1)C(=O)O` [Bezafibrate] returned a melting point of 186 °C.

As to `CS(C)=O` [dimethyl_sulfoxide], the melting point was 18 °C.

`O=C1[C@@H]2[C@H](C(=O)N1O)[C@@H]1C=C[C@H]2C1` [endo-n-hydroxy-5-norbornene-2,3-dicarboximide] yielded a melting point of 168 °C.

On to `c1ccc2c(c1)Cc1ccccc1O2` [xanthene], for which the melting point is 100 °C (2×) and 102 °C.

As to `C=CCCCCC(=O)O` [6-heptenoic acid], the melting point is -6 °C.

As for `CCC(=O)OC(=O)CC` [propionic anhydride], the melting point is -44 °C.

Take `Cn1c(Cl)cc(=O)n(C)c1=O` [6-chloro-1,3-dimethyluracil]: the melting point came out at 110 °C.

For the molecule `Cc1ccc2oc(-c3ccc(O)cc3)cc(=O)c2c1` [4'-hydroxy-6-methylflavone], the melting point came out at 241 °C.

`COc1ccc(Br)c(OC)c1C(=O)O` [3-bromo-2,6-dimethoxybenzoic acid] returned a melting point of 146 °C.

Turning to `NC(c1ccccc1)c1ccccc1` [benzhydrylamine], the melting point was determined as 12 °C.

Consider `Nc1ccc(C/C(=N/O)c2ccc(N)cc2)cc1` [(1Z)-1,2-bis(4-aminophenyl)ethanone oxime], for which the melting point is 147 °C.

Take `CCCCCCCCO` [1-octanol]: the melting point was -15 °C.

`Cc1c(N(C)C)c(=O)n(-c2ccccc2)n1C` [Aminopyrine] had a melting point of 108 °C.

As to `CCC1(c2ccccc2)C(=O)NC(=O)NC1=O` [Phenobarbital], the melting point amounted to 174 °C.

`C=CCCCCCCC` [1-nonene] gave a melting point of -81 °C.

As for `Clc1ccc(Cl)nc1` [2,5-dichloropyridine], the melting point was found to be 61 °C.

The molecule `COB(OC)OC` [Trimethyl borate] showed a melting point of -34 °C.

`COc1ccc(B(O)O)cc1F` [3-fluoro-4-methoxybenzeneboronic acid] displayed a melting point of 238 °C.

`O=C(Cc1ccc(-c2ccccc2)cc1)Nc1ccccn1` [difenpiramide] showed a melting point of 122 °C.

Molecule `O=[N+]([O-])c1ccc(-c2ccc([N+](=O)[O-])cc2Cl)cc1` [2-chloro-4,4'-dinitrobiphenyl] displayed a melting point of 145 °C.

`Nc1ccc(/N=C/c2cccc([N+](=O)[O-])c2)cc1` [4-[(E)-(3-Nitrobenzylidene)amino]aniline] yielded a melting point of 148 °C.

Turning to `Cc1nnc(SCC2=C(C(=O)O)N3C(=O)[C@@H](NC(=O)Cn4cnnn4)[C@H]3SC2)s1` [cefazolin], the melting point stood at 190 °C.

For the molecule `O=S(=O)(Cl)Cc1ccc(C(F)(F)F)cc1` [4-trifluoromethyl-alpha-toluenesulfonyl chloride], the melting point turned out to be 104 °C.

On to `CC1CCCCC1` [Methylcyclohexane], for which the melting point was -127 °C.

In turn, `Clc1cccc(Cl)c1Br` [1-bromo-2,6-dichlorobenzene] displayed a melting point of 66 °C.

Regarding `C#CC1(O)CCCCC1` [1-ethynylcyclohexanol], the melting point amounted to 32 °C.

Regarding `Nc1cccc(Cl)c1Cl` [2,3-dichloroaniline], the melting point stood at 24 °C.

In turn, `Cc1cc(C)nc(NS(=O)(=O)c2ccc(N)cc2)n1` [sulfamethazine] came in with a melting point of 176 °C.

As for `O=c1cc(-c2ccccc2)oc2c1ccc1ccccc12` [alpha-naphthoflavone], the melting point is 158 °C.

Molecule `c1ccc(CCc2ccccc2)cc1` [Bibenzyl] returned a melting point of 52 °C.

With `OC1CCCCC1` [cyclohexanol], the melting point was determined as 21 °C.

`c1ccc2c(c1)ccc1c3ccccc3ccc21` [Chrysene]: the melting point is 253 °C.

In the case of `COc1ccc(C)cc1O` [2-methoxy-5-methylphenol], the melting point was 37 °C.

In turn, `COc1ccc(C=O)cc1` [4-methoxybenzaldehyde] had a melting point of 1 °C.

`O=C(O)c1ccccc1` [Benzoic Acid] yielded a melting point of 122 °C.

`COc1ccc(B(O)O)cn1` [6-methoxypyridine-3-boronic acid]: the melting point turned out to be 133 °C.

On to `Clc1cc(Cl)cc(Cl)c1` [1,3,5-trichlorobenzene], for which the melting point is 65 °C (2×) and 64 °C.

Molecule `Nc1cc(C(F)(F)F)ccc1N1CCOCC1` [2-(4-morpholinyl)-5-(trifluoromethyl)aniline] returned a melting point of 127 °C.

Turning to `c1ccc(Cc2ccccc2)cc1` [diphenylmethane], the melting point was 25 °C.

For the molecule `NC(=O)c1c(Cl)cccc1Cl` [2,6-dichlorobenzamide], the melting point stood at 199 °C.

The molecule `O=C(O)C(Sc1ccccc1)c1ccccc1` (stereo not drawn) [alpha-(phenylthio)phenylacetic acid] showed a melting point of 100 °C.

For the molecule `O=[N+]([O-])c1cccc(I)c1` [1-iodo-3-nitrobenzene], the melting point came out at 37 °C.

Molecule `CN(C)c1ccc(/C=C2\SC(=S)NC2=O)cc1` [5-(4-dimethylaminobenzylidene)rhodanine] gave a melting point of 278 °C.

`[2H]C(Cl)(Cl)Cl` [Trichloro(~2~H)methane] registered a melting point of -64 °C.

In the case of `COc1ccc(/C=C/c2cccc(OC)c2O)cc1OC` [2-[(E)-2-(3,4-Dimethoxyphenyl)vinyl]-6-methoxyphenol], the melting point came out at 165 °C.

Turning to `N#CCc1ccccc1O` [o-hydroxy_phenylacetonitrile], the melting point came out at 122 °C.

In turn, `CCCCCCCCCCCCN` [Dodecan-1-amine] registered a melting point of 29 °C.

Molecule `O=S(=O)(O)Cl` [Sulfurochloridic acid] registered a melting point of -80 °C.

With `Nc1ccc(Nc2ccccc2)cc1` [N-phenyl-p-phenylenediamine], the melting point came out at 74 °C.

In turn, `CCCCC=O` [Valeraldehyde] displayed a melting point of -91.5 °C.

For `N#CN` [cyanamide], the melting point was 45 °C.

`COc1ccc(C(=O)C=C(C)c2ccc(OC)cc2)cc1` [trans-4,4'-Dimethoxy-beta-methylchalcone] came in with a melting point of 87 °C.

The molecule `CC(=O)c1ccccn1` [2-acetylpyridine] returned a melting point of 9 °C.

Molecule `O=C(O)CNC(=O)c1ccccc1` [hippuric acid] showed a melting point of 190 °C.

As to `CC(=O)c1ccccc1C(=O)O` [2-acetylbenzoic_acid], the melting point came to 116 °C.

The molecule `CCCCCCCCCC(=O)O` [decanoic acid] returned a melting point of 31 °C.

With `NC(=O)c1ccccc1Cl` [o-chlorobenzamide], the melting point came out at 143 °C.

Regarding `O=C(O)c1ccc(-c2ccc(O)cc2)cc1` [4'-hydroxybiphenyl-4-carboxylic acid], the melting point is 294 °C.

Take `CC(C(=O)O)c1cccc(C(=O)c2ccccc2)c1` (stereo unspecified) [ketoprofen]: the melting point was 94 °C (2×) and 93 °C.

In the case of `CCCCC(=O)OCC(=O)[C@]1(O)Cc2c(O)c3c(c(O)c2[C@@H](OC2CC(NC(=O)C(F)(F)F)C(O)C(C)O2)C1)C(=O)c1c(OC)cccc1C3=O` (stereo partly specified) [Valrubicin], the melting point was found to be 116 °C.

With `CC(=O)Nc1ccccc1` [acetanilide], the melting point was determined as 114 °C.

With `COS(=O)(=O)c1ccc(C)cc1` [methyl_p-toluenesulfonate], the melting point is 79 °C.

`N#CCc1nn(-c2ccccc2)c(N)c1C#N` [5-amino-4-cyano-3-cyanomethyl-1-phenyl-1h-pyrazole,] yielded a melting point of 164 °C.

Molecule `FC(F)(F)C(F)(F)F` [Hexafluoroethane] yielded a melting point of -100 °C.

In the case of `CCOc1ccccc1B(O)O` [2-ethoxybenzeneboronic acid], the melting point stood at 100 °C.

Regarding `Cc1nnc(S)s1` [5-methyl-1,3,4-thiadiazole-2-thiol], the melting point turned out to be 187 °C.

For the molecule `CC(=O)CCC(C)=O` [2,5-hexanedione], the melting point was -6 °C.

`CC(=O)OCCC(C)C` [isoamyl_acetate] registered a melting point of -78 °C.

On to `CSc1ccc(B(O)O)cc1` [4-(methylthio)benzeneboronic acid], for which the melting point came out at 210 °C.

For `Cc1cc[n+]([O-])cc1` [4-picoline n-oxide], the melting point came to 184 °C.

For the molecule `CC#CC` [2-butyne], the melting point is -32 °C.

Molecule `c1ccc2scnc2c1` [benzothiazole] registered a melting point of 2 °C.

`CCCCCCCCCCCCOP(=O)(O)O` [mono-n-dodecyl phosphate]: the melting point was determined as 42 °C.

On to `Nc1ncnc2c1ncn2[C@@H]1O[C@H](COP(=O)(O)O)[C@@H](O)[C@H]1O` [Adenosine monophosphate], for which the melting point is 186 °C.

In the case of `C=CCOc1nc(OCC=C)nc(OCC=C)n1` [2,4,6-tris(allyloxy)-1,3,5-triazine], the melting point is 27 °C.

For `COC(=O)n1c(C)c(C)c2ccccc21` [methyl 2,3-dimethyl-1H-indole-1-carboxylate], the melting point worked out at 50 °C.

For the molecule `CN(C)C(=S)NN` [4,4-dimethyl-3-thiosemicarbazide], the melting point came to 145 °C.

Regarding `CC(Br)CCCBr` (stereo unspecified) [1,4-dibromopentane], the melting point is -34 °C.

For `NNC(=O)c1ccncc1` [isoniazid], the melting point came to 171 °C.

Molecule `N#Cc1ccc(O)c([N+](=O)[O-])c1` [4-Hydroxy-3-nitrobenzonitrile] returned a melting point of 141 °C.

As to `COC(=O)CCCCC(=O)OC` [dimethyl adipate], the melting point amounted to 8 °C.
